Experimental data from patent US5980899A, “Identification of peptides that stimulate hepatitis C virus specific cytotoxic T cells” (The United States of America as represented by the …, priority 1992, dated 1999).

What was measured:
[1] = tested on: T cells; assay: Response to P17 stimulation in a chronically infected chimpanzee; type: cell-based; settings: one chronically infected chimpanzee
[2] = tested on: 18Neo (BALB/c 3T3 fibroblast, H-2^d) target cells
[3] = tested on: HCV; settings: chronic HCV liver disease; cited from earlier work

Molecule	cytotoxicity in response to stimulation [1]	toxicity that might affect activity in CTL stimulation or utility in vivo [2]	patients who respond [3]	responders who relapse after treatment is stopped [3]
CSCC[C@H](N)C(=O)N[C@@H](CO)C(=O)N[C@@H](Cc1ccc(O)cc1)C(=O)N[C@@H](CO)C(=O)N[C@@H](Cc1c[nH]c2ccccc12)C(=O)N[C@H](C(=O)NCC(=O)N[C@@H](C)C(=O)N[C@@H](CC(C)C)C(=O)N[C@H](C(=O)N[C@H](C(=O)N1CCC[C@H]1C(=O)N[C@@H](CS)C(=O)N[C@@H](C)C(=O)N[C@@H](C)C(=O)N[C@@H](CCC(=O)O)C(=O)O)[C@@H](C)O)C(C)C)[C@@H](C)O [P17, MSYSWTGALVTPCAAE]	not cytotoxicity	did not show any toxicity		
α-interferon			less than half	approximately 50%
